Measured values as given in patent US20250255981A1, “IMMUNOMODULATORY ANTIBODY-DRUG CONJUGATES” (Seagen Inc., priority 2022, published 2025).
Values after ≈ are worked out from the molar mass of the structure shown.

test system: THP1-Dual™ cells (IRF-Lucia luciferase reporter); assay: THP1-Dual™ cell reporter assay; format: cell-based, human; conditions: ADC: drug linker conjugated to targeted mAb, 48 h; some values average of multiple experiments
Protocol: Potency of compounds and ADCs was evaluated using the THP1-Dual™ cells (Invivogen PN: thpd-nfis [also referred to as THP1 dual reporter cells]), which contain an IRF-Lucia luciferase reporter. Cells were cultured in RPMI-1640 (Gibco) with 10% heat-inactivated fetal bovine serum, Pen-Strep (100 U/mL-100 […], Gibco), HEPES (10 mM, Gibco)), sodium pyruvate (1 mM, Gibco), MEM non-essential amino acids (1×, Gibco), GlutaMAX (1×, Gibco), and beta-mercaptoethanol (55 μM, Gibco). Cells were plated in a 96-well flat bottom tissue culture-treated clear polystyrene plate (Corning Costar #3596) at ˜100,000 cells per well in 200 μL with the indicated concentration of the compound or ADC. The supernatant was harvested at 24 hours (compounds) or 48 hours (ADC) post plating for the reporter assay, or as indicated. To measure Lucia reporter signal, 10 µL of the supernatant was combined with 40 µL of QUANTI-Luc™ Luminescence assay reagent (Invivogen PN: rep-qlc1) in a 96-well clear flat bottom tissue culture-treated black polystyrene plate (Corning Costar #3603) and read on a Perkin Elmer Envision plate reader.

SMILES | EC50, Lucia reporter signal
CCn1nc(C)cc1C(=O)Nc1nc2cc(S(=O)(=O)NC)ccc2n1C/C=C/Cn1c(NC(=O)c2cc(C)nn2CC)nc2cc(C(N)=O)cc(OCCCN(C)C(=O)CCN3C(=O)C=CC3=O)c21 [compound 128, (E)-7-(3-(3-(2,5-dioxo-2,5-dihydro-1H-pyrrol-1-yl)-N-methylpropanamido)propoxy)-2-(1-ethyl-3-methyl-H-pyrazole-5-carboxamido)-1-(4-(2-(1-ethyl-3-methyl-1H-pyrazole-5-carboxamido)-5-(N-methylsulfamoyl)-1H-benzo[d]imidazol-1-yl)but-2-en-1-yl)-1H-benzo[d]imidazole-5-carboxamide] | >10,000 ng/mL
CCn1nc(C)cc1C(=O)Nc1nc2cc(C(N)=O)cc(OC)c2n1C/C=C/Cn1c(NC(=O)c2cc(C)nn2CC)nc2cc(C(N)=O)cc(OCCCN(C(=O)CCN3C(=O)C=CC3=O)C3CC3)c21 [compound 133, (E)-1-(4-(5-carbamoyl-2-(1-ethyl-3-methyl-1H-pyrazole-5-carboxamido)-7-methoxy-1H-benzo[d]imidazol-1-yl)but-2-en-1-yl)-7-(3-(N-cyclopropyl-3-(2,5-dioxo-2,5-dihydro-1H-pyrrol-1-yl)propanamido)propoxy)-2-(1-ethyl-3-methyl-1H-pyrazole-5-carboxamido)-1H-benzo[d]imidazole-5-carboxamide] | 12.2 ng/mL (≈ 0.0126 µM)
CCn1nc(C)cc1C(=O)Nc1nc2cc(C(N)=O)cc(OC)c2n1C/C=C/Cn1c(NC(=O)c2cc(C)nn2CC)nc2cc(C(N)=O)cc(OCCC[N+](C)(C)Cc3ccc(O[C@@H]4O[C@H](C(=O)O)[C@@H](O)[C@H](O)[C@H]4O)cc3NC(=O)CCNC(=O)CCN3C(=O)C=CC3=O)c21.O=C([O-])C(F)(F)F [compound 134] | 10.3 ng/mL
CCn1nc(C)cc1C(=O)Nc1nc2cc(S(N)(=O)=O)ccc2n1C/C=C/Cn1c(NC(=O)c2cc(C)nn2CC)nc2cc(C(N)=O)cc(OCCCOC3CN(C(=O)CCN4C(=O)C=CC4=O)C3)c21 [compound 146, (E)-7-(3-((1-(3-(2,5-dioxo-2,5-dihydro-1H-pyrrol-1-yl)propanoyl)azetidin-3-yl)oxy)propoxy)-2-(1-ethyl-3-methyl-1H-pyrazole-5-carboxamido)-1-(4-(2-(1-ethyl-3-methyl-1H-pyrazole-5-carboxamido)-5-sulfamoyl-1H-benzo[d]imidazol-1-yl)but-2-en-1-yl)-1H-benzo[d]imidazole-5-carboxamide] | >10,000 ng/mL
CCn1nc(C)cc1C(=O)Nc1nc2cc(S(N)(=O)=O)ccc2n1C/C=C/Cn1c(NC(=O)c2cc(C)nn2C)nc2cc(C(N)=O)cc(OCCCOC3CN(C(=O)CCN4C(=O)C=CC4=O)C3)c21 [compound 147, (E)-2-(1,3-dimethyl-1H-pyrazole-5-carboxamido)-7-(3-((1-(3-(2,5-dioxo-2,5-dihydro-1H-pyrrol-1-yl)propanoyl)azetidin-3-yl)oxy)propoxy)-1-(4-(2-(1-ethyl-3-methyl-1H-pyrazole-5-carboxamido)-5-sulfamoyl-1H-benzo[d]imidazol-1-yl)but-2-en-1-yl)-1H-benzo[d]imidazole-5-carboxamide] | >10,000 ng/mL
CCn1nc(C)cc1C(=O)Nc1nc2cc(S(N)(=O)=O)ccc2n1C/C=C/Cn1c(NC(=O)c2cc(C)nn2C)nc2cc(C(N)=O)cc(OCCCN(C)C(=O)CCN3C(=O)C=CC3=O)c21 [compound 148, (E)-2-(1,3-dimethyl-1H-pyrazole-5-carboxamido)-7-(3-(3-(2,5-dioxo-2,5-dihydro-1H-pyrrol-1-yl)-N-methylpropanamido)propoxy)-1-(4-(2-(1-ethyl-3-methyl-1H-pyrazole-5-carboxamido)-5-sulfamoyl-1H-benzo[d]imidazol-1-yl)but-2-en-1-yl)-1H-benzo[d]imidazole-5-carboxamide] | >10,000 ng/mL
CCn1nc(C)cc1C(=O)Nc1nc2cc(C(N)=O)cc(OC)c2n1C/C=C/Cn1c(NC(=O)c2cc(C)nn2C)nc2cc(C(N)=O)cc(OCCC3CN(C(=O)CCN4C(=O)C=CC4=O)C3)c21 [compound 149, (E)-1-(4-(5-carbamoyl-2-(1,3-dimethyl-1H-pyrazole-5-carboxamido)-7-(2-(1-(3-(2,5-dioxo-2,5-dihydro-1H-pyrrol-1-yl)propanoyl)azetidin-3-yl)ethoxy)-1H-benzo[d]imidazol-1-yl)but-2-en-1-yl)-2-(1-ethyl-3-methyl-1H-pyrazole-5-carboxamido)-7-methoxy-1H-benzo[d]imidazole-5-carboxamide] | >10,000 ng/mL
